# Measured values published in patent publication US20110082171A1, “Medicaments and Methods for Inhibition of Scarring” (Renovo Limited, priority 2008, published 2011).
# “Also recorded” adds a separate entry of the source. Counter-ions that a name gives are not always drawn.
# Tests used:
# [1] = tested on: scarring resulting from full thickness cutaneous incisional wounds; experiment: Rat incisional wound scarring model, macroscopic VAS assessment of scars; type: in vivo, male Sprague Dawley rats; conditions: day 70 post-wounding
# Protocol: (§1) The GABAA receptor agonist Gaboxadol hydrochloride (Sigma Aldrich, catalogue number T101) was diluted in phosphate buffered saline (PBS) to produce medicaments of the invention having the following concentrations:
# (§2) i) 1.76 ng/100 μL (a concentration of 0.1 μM, in which each […] of the medicament provides 10 pmoles of Gaboxadol hydrochloride); ii) 1.76 μg/100 μL (a concentration of 100 μM, in which each 100 μl of the medicament provides 10 nmoles of Gaboxadol hydrochloride); and iii) 8.83 μg/100 μL (a concentration of 500 μM, in which each 100 μl of the medicament provides 50 nmoles of Gaboxadol hydrochloride).
# (§3) At day 0, male Sprague Dawley rats (200-250 g) were anaesthetised, shaved and wound sites were marked according to a template in which two wounds, each 1 cm in length, were made at sites 5 cm from the base of the skull and 1 cm from the midline on the back of each rat.
# (§4) One hundred microlitres of either one of the medicaments of the invention (comprising either 0.1 μM, 100 μM or 500 μM Gaboxadol hydrochloride in phosphate buffered saline pH 7.2—purchased from GIBCO BRL, Cat. # 20012-019), or placebo (PBS only) was injected intradermally at the wound sites. The intradermal injections caused the formation of a raised bleb, which was then immediately incised to form 1 cm long experimental wounds.
# (§5) All treated or diluent control wounds were re-injected again 1 day post-wounding with the appropriate treatment (drug or placebo) via injection of 50 μl to each of the two margins of the 1 cm wound. All wounds were all harvested at day 70 post-wounding.
# The wounds were photographed after wounding, prior to re-injection on day 1 and on day of harvest. The scars were assessed using a visual analogue scale (VAS) consisting of a 0-10 cm line representing a scale, from left to right, of 0 (corresponding to normal skin) to 10 (indicative of a bad scar).
# [2] = tested on: scarring resulting from full thickness cutaneous incisional wounds; experiment: Rat incisional wound scarring model, microscopic assessment of scars (Masson's trichrome); type: in vivo, male Sprague Dawley rats; conditions: day 70 post-wounding
# Protocol: as §1, §2, §3, §4, §5
# For microscopic assessment the scars were excised from the experimental rats (incorporating a small amount of surrounding normal tissue) and fixed in 10% (v/v) buffered formal saline. The fixed tissue was then processed for wax histology, stained using Masson's trichrome, and scarring in the regenerated dermis was assessed.
# GABAA receptor = conditions: relative to GABA; cited from earlier work
# [3] = biological target: GABAA receptors containing α4β3δ subunits (Homo sapiens, UniProt P28472+P48169); conditions: Brown et al. 2002, cited from earlier work
# Sequence of GABAA receptors containing α4β3δ subunits (P48169 36-554): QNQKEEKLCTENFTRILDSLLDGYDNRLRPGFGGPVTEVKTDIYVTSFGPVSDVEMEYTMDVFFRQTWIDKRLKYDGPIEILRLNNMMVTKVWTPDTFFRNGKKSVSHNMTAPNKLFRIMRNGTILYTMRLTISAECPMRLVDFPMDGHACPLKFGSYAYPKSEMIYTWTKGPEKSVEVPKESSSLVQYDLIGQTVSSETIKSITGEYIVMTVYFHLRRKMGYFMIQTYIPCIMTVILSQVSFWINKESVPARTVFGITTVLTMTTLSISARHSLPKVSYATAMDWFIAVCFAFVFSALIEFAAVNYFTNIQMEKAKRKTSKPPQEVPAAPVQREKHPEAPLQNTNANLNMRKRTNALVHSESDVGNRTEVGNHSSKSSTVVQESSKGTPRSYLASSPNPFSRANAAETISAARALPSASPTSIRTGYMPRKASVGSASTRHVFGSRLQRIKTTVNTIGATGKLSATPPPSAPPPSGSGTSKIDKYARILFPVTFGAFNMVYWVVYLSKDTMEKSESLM
# Sequence of GABAA receptors containing α4β3δ subunits (P28472 26-473): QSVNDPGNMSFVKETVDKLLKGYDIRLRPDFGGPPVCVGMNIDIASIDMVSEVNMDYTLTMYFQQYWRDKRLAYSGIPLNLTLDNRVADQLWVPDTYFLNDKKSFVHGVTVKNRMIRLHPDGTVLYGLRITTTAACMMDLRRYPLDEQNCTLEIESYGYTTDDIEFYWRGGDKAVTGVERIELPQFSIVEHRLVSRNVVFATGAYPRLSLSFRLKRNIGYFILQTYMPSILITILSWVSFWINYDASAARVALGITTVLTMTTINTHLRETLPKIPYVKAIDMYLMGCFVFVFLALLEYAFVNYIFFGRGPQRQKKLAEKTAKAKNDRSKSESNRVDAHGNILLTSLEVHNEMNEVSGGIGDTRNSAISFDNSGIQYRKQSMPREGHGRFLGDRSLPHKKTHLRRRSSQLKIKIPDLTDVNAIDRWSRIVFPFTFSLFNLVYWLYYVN
# Sequence of GABAA receptors containing α4β3δ subunits (O14764 25-452 partner): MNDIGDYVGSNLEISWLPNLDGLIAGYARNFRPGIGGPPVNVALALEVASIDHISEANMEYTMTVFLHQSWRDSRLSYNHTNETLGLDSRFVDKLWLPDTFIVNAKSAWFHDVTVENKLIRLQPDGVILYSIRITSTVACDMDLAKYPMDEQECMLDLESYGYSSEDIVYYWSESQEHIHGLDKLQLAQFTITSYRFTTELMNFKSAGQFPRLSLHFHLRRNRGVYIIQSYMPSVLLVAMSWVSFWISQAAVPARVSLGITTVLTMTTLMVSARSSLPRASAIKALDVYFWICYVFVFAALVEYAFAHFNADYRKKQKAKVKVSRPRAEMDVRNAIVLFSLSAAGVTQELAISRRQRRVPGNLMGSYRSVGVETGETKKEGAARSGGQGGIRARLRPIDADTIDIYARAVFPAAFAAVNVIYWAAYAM
smiles,measurement,setting,value
Oc1noc2c1CCNC2 [Gaboxadol hydrochloride],macroscopic appearance of scars (VAS) versus diluent control,"[1]; 0.1 μM solution in PBS, two intradermal injections of 100 μl (1.76 ng per centimetre each)",improved the macroscopic appearance of scars; also recorded: statistically significant inhibition of scarring
same,macroscopic appearance of scars (VAS) versus diluent control,"[1]; 100 μM solution in PBS, two intradermal injections of 100 μl (1.76 μg per centimetre each)",improved the macroscopic appearance of scars; also recorded: trend towards scar reduction
same,macroscopic appearance of scars (VAS) versus diluent control,"[1]; 500 μM solution in PBS, two intradermal injections of 100 μl (8.83 μg per centimetre each)",improved the macroscopic appearance of scars
same,scarring assessed microscopically,[2]; 0.1 μM solution in PBS,reduction of scarring
same,scarring assessed microscopically,[2]; 100 μM solution in PBS,reduction of scarring
same,scarring assessed microscopically,[2]; 500 μM solution in PBS,reduction of scarring
"Oc1noc2c1CCNC2 [Gaboxadol, 4,5,6,7-tetrahydroisoxazolo[5,4-c]pyridine-3-ol]",affinity for GABAA receptors compared with GABA (in words),GABAA receptor,affinity higher than that of GABA itself
same,EC50,[3],6 µM
same,maximum response (% of that of GABA),[3]; relative to GABA,163%
"NCc1cc(=O)[nH]o1 [Muscimol, muscimol]","affinity at the GABAA receptor, greater than GABA",GABAA receptor,10 fold
